Columns and labels:
[1] = tested on: adenine-induced renal failure rat; experiment: Suppressive effect on rise in serum phosphorus concentration of adenine-induced renal failure rat (0.05% in feed, 8 days); assay type: in vivo, Wistar male rat; conditions: rate of suppression of a rise in serum phosphorus concentration, 0.05% of mass concentration in feed
Description: Test Example 6: Suppressive effect on rise in serum phosphorus concentration of adenine-induced renal failure rat
Each adenine-induced renal failure rat was prepared in the same way as in Test Example 5. Each test compound was mixed at a ratio of 0.05% of mass concentration with feed. The animal was fed with a given amount of the feed for 8 days. A group given feed non-supplemented with a test compound was used as a reference pathological group, and an adenine-unadministered group given feed non-supplemented with a test compound was used as a normal group. 8 days after the start of administration of the test compound, blood was collected from the jugular vein, and serum was collected. Serum phosphorus concentrations were measured by the Fiske-Subbarow method. The rate of suppression of a rise in serum phosphorus concentration was determined according to the following expression: Rate (%) of supression of a rise in serum phosphorus concentration = (1−[(Serumphosphorusconcentrationofthetestcompound−treatedpathologicalgroup)−(Serumphosphorusconcentrationofthenormalgroup)]/[(Serumphosphorusconcentrationofthereferencepathologicalgroup)−(Serumphosphorusconcentrationofthenormalgroup)]) × 100 [formula]
As a result, each test compound was confirmed to have a suppressive effect on a rise in serum phosphorus concentration. […]

[2] = tested on: rat small-intestinal brush border membrane vesicles; experiment: Inhibitory effect on 33PO4 uptake into rat small-intestinal brush border membrane vesicles (rapid filtration method); assay type: biochemical, Wistar female rat; conditions: 1 µM test compound, 33PO4 uptake into rat small-intestinal BBMVs, 60 seconds
Procedure, shortened: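 33PO4 uptake into rat small-intestinal brush border membrane vesicles measured by rapid filtration. Reactions were stopped with ice-cold buffer (110 mM NaCl, 1 mM KH2PO4, 10 mM HEPES pH 7.5), filtered and washed. Vesicle-associated radioactivity was counted by liquid scintillation.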

[3] = tested on: human NaPi-IIb; experiment: Inhibitory effect on 33PO4 uptake into human NaPi-IIb-expressing cell; assay type: cell-based; conditions: CHO cells stably expressing human NaPi-IIb, 1, 3, 10, or 30 µM
Description: CHO cells were transfected with human NaPi-IIb expression plasmids, and a stably human NaPi-IIb-expressing cell line was obtained using G418. The human NaPi-IIb-expressing cells were inoculated to a 96-well plate and incubated overnight in a CO2 incubator. The medium was replaced with buffer A (145 mM choline chloride, 3 mM KCl, 1 mM CaCl2, 0.5 mM MgCl2, 5 mM glucose, and 5 mM MES (pH 6.5)) and then replaced with buffer B (145 mM NaCl, 3 mM KCl, 1 mM CaCl2, 0.5 mM MgCl2, 5 mM glucose, and 5 mM MES (pH 6.5)) supplemented with each test compound at a final concentration of 1,3, 10, or 30 µM or buffer A supplemented with DMSO. After a given time, a 1/20 volume of buffer A containing ^33PO4 was added thereto and reacted at room temperature. After washing with ice-cold buffer A, a liquid scintillator was added to each reaction mixture, and the amount of ^33PO4 uptake was measured using TopCount. The rate of inhibition was determined according to the following expression: [formula]

[4] = tested on: adenine-induced renal failure rat; experiment: Suppressive effect on rise in serum phosphorus concentration of adenine-induced renal failure rat (0.1% in feed, 3 days); assay type: in vivo, Wistar male rat; conditions: feed or water, 72 h, rate of suppression of a rise in serum phosphorus concentration, 0.1% of mass concentration in feed
Text: Test Example 5: Suppressive effect on rise in serum phosphorus concentration of adenine-induced renal failure rat Adenine was forcedly administered orally to each Wistar male rat (7-8 weeks old) to impair renal functions and thereby prepare a hyperphosphatemia model ([…], Nagano N, Burke SK, Fukushima N. Sevelamer hydrochloride prevents ectopic calcification and renal osteodystrophy in chronic renal failure rats. Kidney Int. 2003 Aug; 64 (2): 441-50). Each test compound was mixed at a ratio of 0.1% of mass concentration with feed. The animal was fed with a given amount of the feed for 3 days. A group given feed non-supplemented with a test compound was used as a reference pathological group, and an adenine-unadministered group given feed non-supplemented with a test compound was used as a normal group. 3 days after the start of administration of the test compound, blood was collected from the jugular vein, and serum was collected. Serum phosphorus concentrations were measured by the Fiske-Subbarow method. The rate of suppression of a rise in serum phosphorus concentration was determined according to the following expression: Rate (%) of suppression of a rise in serum phosphorus concentration = (1-[([…]-treatedpathologicalgroup); -(Serumphosphorusconcentrationofthenormalgroup)]/; [(Serumphosphorusconcentrationofthereferencepathologicalgroup)-(Serumphosphorusconcentrationofthenormalgroup)]) × 100 [formula] As a result, each test compound was confirmed to have a suppressive effect on a rise in serum phosphorus concentration. […]

Row | SMILES | Rate of inhibition (%) [1] | Rate of uptake inhibition (%) (1 µM) [2] | Rate of uptake inhibition (%) (1 µM) ([2]; 1 µM) | IC50 [3] | inhibition in vivo at 0.1 %, 0.1 % in feed [4]
1 | CN(C[C@H](O)[C@@H](O)[C@H](O)[C@H](O)CO)C(=O)CCCOc1ccc(CN2C(=O)C(C(=O)Nc3ccc(C(F)(F)F)cc3-c3cc(C(F)(F)F)ncn3)=C(O)C3(CCCC3)N2C)c(F)c1F [Example 418, 7-[[2,3-Difluoro-4-[4-[methyl-[(2S,3R,4R,5R)-2,3,4,5,6-pentahydroxyhexyl]amino]-4-oxobutoxy]phenyl]methyl]-10-hydroxy-6-methyl-8-oxo-N-[4-(trifluoromethyl)-2-[6-(trifluoromethyl)pyrimidin-4-yl]phenyl]-6,7-diazaspiro[4.5]dec-9-ene-9-carboxamide] | 38% | 29% | – | – | –
2 | CN1N(Cc2ccc(OCCNCCS(=O)(=O)O)c(F)c2F)C(=O)C(C(=O)Nc2ccc(C(F)(F)F)cc2-c2cc(C(F)(F)F)ncn2)=C(O)C12CCCC2 [Example 436, 2-[2-[2,3-Difluoro-4-[[10-hydroxy-6-methyl-8-oxo-9-[[4-(trifluoromethyl)-2-[6-(trifluoromethyl)pyrimidin-4-yl]phenyl]carbamoyl]-6,7-diazaspiro[4.5]dec-9-en-7-vl]methyl]phenoxy]ethylamino]ethanesulfonic acid] | – | – | 12% | 14 µM | –
3 | CN(C)CC(C)(C)COc1ccc(CN2C(=O)C(C(=O)Nc3ccc(C(F)(F)F)cc3-c3cc(C(F)(F)F)ncn3)=C(O)C3(CCCC3)N2C)c(F)c1F [Example 414, 7-(4-(3-(Dimethylamino)-2,2-dimethylpropoxy)-2,3-difluorobenzyl)-10-hydroxy-6-methyl-8-oxo-N-(4-(trifluoromethyl)-2-(6-(trifluoromethyl)pyrimidin-4-yl)phenyl)-6,7-diazaspiro[4.5]dec-9-ene-9-carboxamide] | 37% | 27% | – | – | –
4 | CN1[C@@H](C(C)(C)C)C(O)=C(C(=O)Nc2ccc(C(F)(F)F)cc2-c2cc(C(F)(F)F)ncn2)C(=O)N1Cc1ccc(OCCN2CCOCC2)c(F)c1F [Example 264, (3S)-3-tert-Butyl-1-[[2,3-difluoro-4-(2-morpholin-4-ylethoxy)phenyl]methyl]-4-hydroxy-2-methyl-6-oxo-N-[4-(trifluoromethyl)-2-[6-(trifluoromethyl)pyrimidin-4-yl]phenyl]-3H-pyridazine-5-carboxamide] | – | 48% | – | – | 15%
5 | CN1N(Cc2ccc(OCCN3CCOCC3)c(F)c2F)C(=O)C(C(=O)Nc2ccc(C(F)(F)F)cc2-c2cc(C(F)(F)F)ncn2)=C(O)C12CCC2 [Example 317, 6-[[2,3-Difluoro-4-(2-morpholin-4-ylethoxy)phenyl]methyl]-9-hydroxy-5-methyl-7-oxo-N-[4-(trifluoromethyl)-2-[6-(trifluoromethyl)pyrimidin-4-yl]phenyl]-5,6-diazaspiro[3.5]non-8-ene-8-carboxamide] | – | 57% | – | – | 22%
6 | CN(C)S(=O)(=O)N1CCC(c2cc(C(F)(F)F)ccc2NC(=O)C2=C(O)[C@@]3(C)CCCN3N(Cc3cccc(F)c3F)C2=O)CC1 [Example 110] | – | 57% | – | 19.8 µM | –
7 | C[C@]12CCCN1N(Cc1ccc(OCCN3CCOCC3)c(F)c1F)C(=O)C(C(=O)Nc1ccc(C(F)(F)F)cc1-c1cc(C(F)(F)F)ncn1)=C2O [Example 157, (4aR)-1-[[2,3-Difluoro-4-(2-morpholin-4-ylethoxy)phenyl]methyl]-4-hydroxy-4a-methyl-2-oxo-N-[4-(trifluoromethyl)-2-[6-(trifluoromethyl)pyrimidin-4-yl]phenyl]-6,7-dihydro-5H-pyrrolo[1,2-b]pyridazine-3-carboxamide] | – | 89% | – | – | 30%
8 | COC[C@@H]1CCCN1CCOc1ccc(CN2C(=O)C(C(=O)Nc3ccc(C(F)(F)F)cc3-c3cc(C(F)(F)F)ncn3)=C(O)C3(CCC3)N2C)c(F)c1F [Example 345, 6-[[2,3-Difluoro-4-[2-[(2S)-2-(methoxymethyl)pyrrolidin-1-yl]ethoxy]phenyl]methyl]-9-hydroxy-5-methyl-7-oxo-N-[4-(trifluoromethyl)-2-[6-(trifluoromethyl)pyrimidin-4-yl]phenyl]-5,6-diazaspiro[3.5]non-8-ene-8-carboxamide] | – | 73% | – | – | 19%
9 | Cc1c(C#N)ncnc1-c1cc(C(F)(F)F)ccc1NC(=O)C1=C(O)[C@H](C(C)(C)C)N(C)N(Cc2ccc(OCCN3CCOCC3)c(F)c2F)C1=O [Example 270, (3S)-3-tert-Butyl-N-[2-(6-cyano-5-methylpyrimidin-4-yl)-4-(trifluoromethyl)phenyl]-1-[[2,3-difluoro-4-(2-morpholin-4-ylethoxy)phenyl]methyl]-4-hydroxy-2-methyl-6-oxo-3H-pyridazine-5-carboxamide] | – | 75% | – | – | 20%

Source: patent EP2975030B1, “DIHYDROPYRIDAZINE-3,5-DIONE DERIVATIVE” (Chugai Seiyaku Kabushiki Kaisha, priority 2013, dated 2014)
